Patent US5462868A (priority 1991, dated 1995)
Read-outs that look alike come from different tables or passages of the source.

Experiments:
cocaine esterase [1] = type: biochemical, Pseudomonas maltophilia MB11L; settings: 1 mM inhibitor; for % ACTIVITY RELATIVE TO CONTROL: preincubated 30° C. 10 min, 2 mM cocaine, 0.9 U/ml=100% activity; for inhibition of cocaine esterase activity (in words): 30° C., 10 min
Method: (§1) The reaction was stopped by the addition of 10 μl of concentrated phosphoric acid and protein pelleted at 13,000 rpm in a minifuge. The amount of benzoic acid produced was determined by HPLC analysis of 50 μl of the supernatant and comparison to standard samples (0-1 mM) treated identically. Standard curves of peak height plotted against benzoic acid concentration were linear over the range 0-1 mM. Controls containing no enzyme solution were run to allow for background hydrolysis. An assay was considered invalid if no cocaine remained at the end of the assay (seen by HPLC). One unit of esterase activity is defined as the amount of enzyme required to produce 1 μmol of benzoic acid in 1 min at 30° C.
The possible inhibitors tested were phenylmethylsulphonyl fluoride (PMSF), eserine, para-hydroxymercuribenzoate (pHMB), benzoate and ecgonine methyl ester.

cocaine esterase [2] = type: biochemical, Pseudomonas maltophilia MB11L; settings: for Km: read-out: Apparent Km
Method: as §1
Reactions were stopped using concentrated phosphoric acid (10 μl) to precipitate protein, which was removed by centrifugation at 13,000 rpm in a Microfuge. Rates of substrate hydrolysis were calculated from HPLC analyses of the incubations. Non-enzymic rates of hydrolysis were calculated from control samples containing no enzyme, and the enzyme assays corrected accordingly. Standard samples of the relevant free acids were used to calibrate each assay. […] Lineweaver-Burke and Eadie-Hofstee plots were used to obtain these values (see Fersht, 1985, Enzyme Structure and Mechanism, 2nd Edition, Publishers: W. H. Freeman & Co., Oxford for methods).

[3] = Screen of esterases for activity against cocaine (HPLC); type: biochemical; settings: 2 mM cocaine in 50 mM buffer of pH suited for maximum enzyme activity
[4] = Specific activity of esterases against their usual substrate; type: biochemical; settings: usual substrate of each enzyme
Method: Control incubations containing no enzyme were performed under each set of conditions to allow accurate assaying of enzyme activity.

[5] = purified cocaine esterase, 50 mM bis-tris-propane buffer pH 8.0, 30° C., 10 min, mean values

Molecule: COC(=O)[C@@H]1[C@H]2CC[C@@H](C[C@@H]1O)N2C [Ecgonine methyl ester, ecgonine methyl ester]
- % ACTIVITY RELATIVE TO CONTROL (cocaine esterase [1]): 82%

Molecule: COC(=O)[C@H]1[C@@H](OC(=O)c2ccccc2)C[C@@H]2CC[C@H]1N2C [Cocaine]
- Apparent Vmax (cocaine esterase [2]; [5]): 29.5 U/mg
- Km (cocaine esterase [2]; [5]): 360 µM

Molecule: O=S(=O)(F)Cc1ccccc1 [PMSF, phenylmethylsulphonyl fluoride]
- inhibition of cocaine esterase activity (in words) (cocaine esterase [1]): total inactivation
- % ACTIVITY RELATIVE TO CONTROL (cocaine esterase [1]): 0%

Molecule: Horse serum butyryl-cholinesterase: commercially available esterase enzyme
- SPECIFIC ACTIVITY (U/mg) AGAINST COCAINE [3]: 0.098 U/mg
- SPECIFIC ACTIVITY (U/mg) AGAINST USUAL SUBSTRATE [4]: 14 U/mg

Molecule: O=C(O)c1ccccc1 [Benzoate, benzoate]
- % ACTIVITY RELATIVE TO CONTROL (cocaine esterase [1]): 92%

Molecule: CCOC(=O)c1ccc(O)cc1 [Ethyl 4-hydroxybenzoate]
- Apparent Km (cocaine esterase [2]; [5]): No activity
- Apparent Vmax (cocaine esterase [2]; [5]): No activity

Molecule: CCOC(=O)c1ccccc1 [Ethyl benzoate]
- Apparent Vmax (cocaine esterase [2]; pH 8): 65.0 U/mg
- Km (cocaine esterase [2]; pH 8): 1890 µM

Molecule: CCOC(=O)c1cccc(O)c1 [Ethyl 3-hydroxybenzoate]
- Apparent Km (cocaine esterase [2]; [5]): No activity
- Apparent Vmax (cocaine esterase [2]; [5]): No activity

Molecule: CCOC(=O)c1ccccc1O [Ethyl 2-hydroxycenzoate]
- Km (cocaine esterase [2]; [5]): 1750 µM

Molecule: Electric eel acetyl-cholinesterase: commercially available esterase enzyme
- SPECIFIC ACTIVITY (U/mg) AGAINST COCAINE [3]: 0 U/mg
- SPECIFIC ACTIVITY (U/mg) AGAINST USUAL SUBSTRATE [4]: 320 U/mg

Molecule: O=C(O)c1cc[c]([Hg][OH])cc1 [pHMB, para-hydroxymercuribenzoate]
- inhibition of cocaine esterase activity (in words) (cocaine esterase [1]): relatively ineffective
- % ACTIVITY RELATIVE TO CONTROL (cocaine esterase [1]): 86%

Molecule: CNC(=O)Oc1ccc2c(c1)[C@]1(C)CCN(C)[C@@H]1N2C [Eserine, eserine]
- inhibition of cocaine esterase activity (in words) (cocaine esterase [1]): relatively ineffective
- % ACTIVITY RELATIVE TO CONTROL (cocaine esterase [1]): 95%

B1: Porcine pancreatic lipase: commercially available esterase enzyme (protein, UniProt P00591 1-450, looked up)
Pancreatic triacylglycerol …: SEVCFPRLGCFSDDAPWAGIVQRPLKILPWSPKDVDTRFLLYTNQNQNNYQELVADPSTITNSNFRMDRKTRFIIHGFIDKGEEDWLSNICKNLFKVESVNCICVDWKGGSRTGYTQASQNIRIVGAEVAYFVEVLKSSLGYSPSNVHVIGHSLGSHAAGEAGRRTNGTIERITGLDPAEPCFQGTPELVRLDPSDAKFVDVIHTDAAPIIPNLGFGMSQTVGHLDFFPNGGKQMPGCQKNILSQIVDIDGIWEGTRDFVACNHLRSYKYYADSILNPDGFAGFPCDSYNVFTANKCFPCPSEGCPQMGHYADRFPGKTNGVSQVFYLNTGDASNFARWRYKVSVTLSGKKVTGHILVSLFGNEGNSRQYEIYKGTLQPDNTHSDEFDSDVEVGDLQKVKFIWYNNNVINPTLPRVGASKITVERNDGKVYDFCSQETVREEVLLTLNPC
- SPECIFIC ACTIVITY (U/mg) AGAINST COCAINE [3]: 0 U/mg
- SPECIFIC ACTIVITY (U/mg) AGAINST USUAL SUBSTRATE [4]: 50 U/mg
